# Reference: PubChem BioAssay (NCI)
#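 Each compound was tested at five concentrations against cells in 96-well plates for 48 hours. The concentration for 50% growth inhibition is given as GI50. TGI: concentration producing complete growth inhibition.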
# Legend:
# Experiment in all cases: NCI tumour cell line growth inhibition, 48 h
# KM12 colon = test system: KM12 colon
# 786-0 renal = test system: 786-0 renal
# NCI/ADR-RES ovarian = test system: NCI/ADR-RES ovarian
# BT-549 breast = test system: BT-549 breast
# K-562 leukemia = test system: K-562 leukemia
# PC-3 prostate = test system: PC-3 prostate
# T-47D breast = test system: T-47D breast
# NCI-H460 lung = test system: NCI-H460 lung
# SN12C renal = test system: SN12C renal
# U251 CNS = test system: U251 CNS
# HOP-92 NSCLC = test system: HOP-92 NSCLC
# CCRF-CEM leukemia = test system: CCRF-CEM leukemia
# HT29 colon = test system: HT29 colon
# OVCAR-5 ovarian = test system: OVCAR-5 ovarian
# HCC-2998 colon = test system: HCC-2998 colon
# NCI-H226 lung = test system: NCI-H226 lung
# M14 melanoma = test system: M14 melanoma
# OVCAR-4 ovarian = test system: OVCAR-4 ovarian
# SF-295 CNS = test system: SF-295 CNS
# SK-MEL-2 melanoma = test system: SK-MEL-2 melanoma
# SNB-75 CNS = test system: SNB-75 CNS
# EKVX NSCLC = test system: EKVX NSCLC
# SK-OV-3 ovarian = test system: SK-OV-3 ovarian
# COLO 205 colon = test system: COLO 205 colon
# IGROV1 ovarian = test system: IGROV1 ovarian
# OVCAR-8 ovarian = test system: OVCAR-8 ovarian
# DU-145 prostate = test system: DU-145 prostate
# MDA-MB-435 = test system: MDA-MB-435
# SK-MEL-5 melanoma = test system: SK-MEL-5 melanoma
# HOP-62 NSCLC = test system: HOP-62 NSCLC
# CAKI-1 renal = test system: CAKI-1 renal
# MDA-MB-231 breast = test system: MDA-MB-231 breast
# UO-31 renal = test system: UO-31 renal
# NCI-H23 lung = test system: NCI-H23 lung
# SF-268 CNS = test system: SF-268 CNS
# LOX IMVI melanoma = test system: LOX IMVI melanoma
# TK-10 renal = test system: TK-10 renal
# UACC-257 melanoma = test system: UACC-257 melanoma
# OVCAR-3 ovarian = test system: OVCAR-3 ovarian
# SF-539 CNS = test system: SF-539 CNS
# HS 578T breast = test system: HS 578T breast
# A498 renal = test system: A498 renal
# MOLT-4 leukemia = test system: MOLT-4 leukemia
# SR leukemia = test system: SR leukemia
# MCF7 breast = test system: MCF7 breast
# SW-620 colon = test system: SW-620 colon
# HL-60(TB) leukemia = test system: HL-60(TB) leukemia
# HCT-116 colon = test system: HCT-116 colon
# UACC-62 melanoma = test system: UACC-62 melanoma
# A549 NSCLC = test system: A549 NSCLC
# RXF 393 renal = test system: RXF 393 renal
# SK-MEL-28 melanoma = test system: SK-MEL-28 melanoma
# SNB-19 CNS = test system: SNB-19 CNS
# HCT-15 colon = test system: HCT-15 colon
# ACHN renal = test system: ACHN renal
compound,measurement,setting,value
COc1ccc(C(=O)NCCNc2nccc(-c3c(-c4ccc(F)cc4)nc4sccn34)n2)cc1,GI50,KM12 colon,2.99 µM
same,TGI,KM12 colon,22.4 µM
same,GI50,786-0 renal,8.04 µM
same,TGI,786-0 renal,> 100 µM
same,GI50,NCI/ADR-RES ovarian,7.62 µM
same,TGI,NCI/ADR-RES ovarian,> 100 µM
same,GI50,BT-549 breast,7.95 µM
same,TGI,BT-549 breast,31.2 µM
same,GI50,K-562 leukemia,4.81 µM
same,TGI,K-562 leukemia,> 100 µM
same,GI50,PC-3 prostate,10.9 µM
same,TGI,PC-3 prostate,> 100 µM
same,GI50,T-47D breast,5.78 µM
same,TGI,T-47D breast,34 µM
same,GI50,NCI-H460 lung,3.55 µM
same,TGI,NCI-H460 lung,> 100 µM
same,GI50,SN12C renal,7.8 µM
same,TGI,SN12C renal,> 100 µM
same,GI50,U251 CNS,4.47 µM
same,TGI,U251 CNS,> 100 µM
same,GI50,HOP-92 NSCLC,13.4 µM
same,TGI,HOP-92 NSCLC,> 100 µM
same,GI50,CCRF-CEM leukemia,4.75 µM
same,TGI,CCRF-CEM leukemia,> 100 µM
same,GI50,HT29 colon,2.5 µM
same,TGI,HT29 colon,> 100 µM
same,GI50,OVCAR-5 ovarian,39 µM
same,TGI,OVCAR-5 ovarian,> 100 µM
same,GI50,HCC-2998 colon,9.72 µM
same,TGI,HCC-2998 colon,> 100 µM
same,GI50,NCI-H226 lung,6 µM
same,TGI,NCI-H226 lung,69.1 µM
same,GI50,M14 melanoma,6.45 µM
same,TGI,M14 melanoma,30.9 µM
same,GI50,OVCAR-4 ovarian,10.5 µM
same,TGI,OVCAR-4 ovarian,84 µM
same,GI50,SF-295 CNS,2.73 µM
same,TGI,SF-295 CNS,15.1 µM
same,GI50,SK-MEL-2 melanoma,6.23 µM
same,TGI,SK-MEL-2 melanoma,30.4 µM
same,GI50,SNB-75 CNS,2.97 µM
same,TGI,SNB-75 CNS,37.2 µM
same,GI50,EKVX NSCLC,5.03 µM
same,TGI,EKVX NSCLC,73.9 µM
same,GI50,SK-OV-3 ovarian,13.7 µM
same,TGI,SK-OV-3 ovarian,> 100 µM
same,GI50,COLO 205 colon,3.01 µM
same,TGI,COLO 205 colon,22.8 µM
same,GI50,IGROV1 ovarian,2.53 µM
same,TGI,IGROV1 ovarian,15.5 µM
same,GI50,OVCAR-8 ovarian,5.07 µM
same,TGI,OVCAR-8 ovarian,> 100 µM
same,GI50,DU-145 prostate,1.04 µM
same,TGI,DU-145 prostate,18.9 µM
same,GI50,MDA-MB-435,3.1 µM
same,TGI,MDA-MB-435,22.7 µM
same,GI50,SK-MEL-5 melanoma,3.01 µM
same,TGI,SK-MEL-5 melanoma,15.7 µM
same,GI50,HOP-62 NSCLC,12.8 µM
same,TGI,HOP-62 NSCLC,> 100 µM
same,GI50,CAKI-1 renal,2.27 µM
same,TGI,CAKI-1 renal,24.5 µM
same,GI50,MDA-MB-231 breast,24.8 µM
same,TGI,MDA-MB-231 breast,> 100 µM
same,GI50,UO-31 renal,1.42 µM
same,TGI,UO-31 renal,16.5 µM
same,GI50,NCI-H23 lung,8.95 µM
same,TGI,NCI-H23 lung,> 100 µM
same,GI50,SF-268 CNS,2.61 µM
same,TGI,SF-268 CNS,33.5 µM
same,GI50,LOX IMVI melanoma,4.67 µM
same,TGI,LOX IMVI melanoma,> 100 µM
same,GI50,TK-10 renal,16.1 µM
same,TGI,TK-10 renal,> 100 µM
same,GI50,UACC-257 melanoma,13.9 µM
same,TGI,UACC-257 melanoma,68.8 µM
same,GI50,OVCAR-3 ovarian,1.24 µM
same,TGI,OVCAR-3 ovarian,19.9 µM
same,GI50,SF-539 CNS,16.3 µM
same,TGI,SF-539 CNS,> 100 µM
same,GI50,HS 578T breast,6.12 µM
same,TGI,HS 578T breast,72.3 µM
same,GI50,A498 renal,2.07 µM
same,TGI,A498 renal,55 µM
same,GI50,MOLT-4 leukemia,6.97 µM
same,TGI,MOLT-4 leukemia,57.8 µM
same,GI50,SR leukemia,5.93 µM
same,TGI,SR leukemia,49.1 µM
same,GI50,MCF7 breast,2 µM
same,TGI,MCF7 breast,36.2 µM
same,GI50,SW-620 colon,7.22 µM
same,TGI,SW-620 colon,> 100 µM
same,GI50,HL-60(TB) leukemia,13.6 µM
same,TGI,HL-60(TB) leukemia,47.8 µM
same,GI50,HCT-116 colon,3.95 µM
same,TGI,HCT-116 colon,19.8 µM
same,GI50,UACC-62 melanoma,4.03 µM
same,TGI,UACC-62 melanoma,28.4 µM
same,GI50,A549 NSCLC,3.89 µM
same,TGI,A549 NSCLC,> 100 µM
same,GI50,RXF 393 renal,4.05 µM
same,TGI,RXF 393 renal,39.4 µM
same,GI50,SK-MEL-28 melanoma,12.8 µM
same,TGI,SK-MEL-28 melanoma,> 100 µM
same,GI50,SNB-19 CNS,10.3 µM
same,TGI,SNB-19 CNS,> 100 µM
same,GI50,HCT-15 colon,4.09 µM
same,TGI,HCT-15 colon,> 100 µM
same,GI50,ACHN renal,2.67 µM
same,TGI,ACHN renal,> 100 µM
